Data on seven molecules can be found in US20250270206A1, “COMPOSITIONS AND METHODS FOR INHIBITION OF RAS” (TheRas, Inc., priority 2022, published 2025).

The target of assay [1] is T1, GppNHp-loaded KRAS4b (amino acids 1-169) G12C/C118S (Homo sapiens, UniProt P01116, C118S/G12C).
T1 construct: KRAS4b (amino acids 1-169) G12C/C118S protein; made in house
The assay is described as follows: MALDI-TOF MS covalent Cys12 modification, GppNHp-loaded KRAS G12C. It counts as binding. Particulars: 15 minutes reaction time, 1 μM protein, 1:2.5 protein to compound ratio. As to the method:
(§1) MALDI-TOF MS analysis was performed using 1 μM protein target, and 1:2.5 protein to compound ratio was used.
(§2) Reaction: 1 μM of GppNHp, GTP, or GDP-loaded KRAS4b (amino acids 1-169) G12C/C118S protein (produced in-house by Protein Expression Laboratory, FNLCR/Leidos Biomed) in 20 mM 4-(2-hydroxyethyl)-1-piperazineethanesulfonic acid (HEPES) buffer containing 150 mM NaCl, 1 mM MgCl2, pH 7.3 was prepared freshly before assay. Ten-μL aliquots of protein were dispensed onto low volume 384-well plate, then 375 nL DMSO, and 25 nL of tested compounds from 5 mM DMSO stocks were added to appropriate wells using ECHO 555 acoustic liquid handler (Labcyte Inc.). For each reaction/assay, three blanks were prepared by mixing 10 μL of protein solution with 400 nL DMSO. The contents of the wells were carefully mixed by aspiration, and then each plate was sealed with an adhesive cover, centrifuged at 2000 g for 1 minute, and kept in the dark at room temperature until 5 min, 15 min, 30 min, 2 h, or 6 h collections.
(§3) Target pretreatment: Before each assay MALDI target (Bruker MPT 384 ground steel BC) was pre-treated by pipetting on each spot 0.75 μL of saturated sinapinic acid in acetonitrile (ACN).
(§4) Sample preparation: At collection time point, 2 μL of reaction mixtures were pipetted out into 20 μL MALDI matrix solution (saturated solution of sinapinic acid in 1:1 ACN:water solution containing 0.75% trifluoroacetic acid (TFA)) deposited on 384 well polypropylene plate. Resulting solution was mixed by aspiration, centrifuged at 2000 g for 1 minute, then 1 μL aliquots were dispensed on pre-treated MALDI target using Beckman Coulter Biomek FX^P 96/384-Span-8 Laboratory Automation Workstation. Finally, the MALDI target was dried under mild vacuum to produce spots with fine crystalline structure.
(§5) Measurements: MALDI-TOF measurements were performed on a Bruker Daltonics rapifleX Tissuetyper TOF-TOF mass spectrometer using linear mode and mass range from 18.6 to 21.6 kDa. Detector gain was set to 3.3× (483 V), sample rate to 5 GS/s, real time smoothing to medium (175 MHz), laser smart beam pattern was set to: “MS Thin Layer M5”, and the laser frequency was 10000 Hz. Spectra were automatically collected using custom AutoXecute method. Laser power was auto adjusted using fuzzy control. The peak selection range was set to be between 19000 and 21500 Da. Peak evaluation uses half width parameter set to be smaller than 40 Da for processed spectrograms (centroid peak detection: smoothed by SavitzkyGolay algorithm using 7 m/z width and 2 cycles; baseline was subtracted using median algorithm with flatness 1 and median level 0.01). Fuzzy control used Proteins/Oligonucleotides protocol with minimum half width 1/10 times above threshold. Up to 40000 satisfactory shots were collected in 10000 shot steps. Dynamic termination was implemented to finish data collection when peak signal/noise ratio reached a value of 50.
(§6) Spectra processing: Spectra were smoothed by SavitzkyGolay algorithm using 7 m/z width and three cycles. Centroid peak detection algorithm was used with signal to noise threshold set to 6, relative intensity threshold 4%, peak width 10 m/z and median baseline subtraction using flatness of 1 and median level of 0.01. Peak intensity and area under the peak were evaluated and recorded for all peaks between 19,300 Da and 21,550 Da.
(§7) Calculation of percent modification: Percent modification was calculated as a ratio of peak height for protein modified by compound to sum of peak height of remaining protein plus peak height for protein modified by compound. If multiple modifications were observed each was calculated as a ratio of peak height for given modification versus sum of peak heights for all observed protein species. Data reported in Table 5 are from the 15 minutes reaction time point.

The target of assay [2] is T2, GTP-loaded KRAS4b (amino acids 1-169) G12C/C118S (Homo sapiens, UniProt P01116, C118S/G12C).
T2 construct: KRAS4b (amino acids 1-169) G12C/C118S protein; made in house
The assay is described as follows: MALDI-TOF MS covalent Cys12 modification, GTP-loaded KRAS G12C. The class given is binding. The note with it: 15 minutes reaction time, 1 μM protein, 1:2.5 protein to compound ratio. The procedure: as §1, §2, §3, §4, §5, §6, §7

The target of assay [3] is T3, GDP-loaded KRAS4b (amino acids 1-169) G12C/C118S (Homo sapiens, UniProt P01116, C118S/G12C).
T3 construct: KRAS4b (amino acids 1-169) G12C/C118S protein; made in house
The assay is described as follows: MALDI-TOF MS covalent Cys12 modification, GDP-loaded KRAS G12C. It counts as binding. The note with it: 15 minutes reaction time, 1 μM protein, 1:2.5 protein to compound ratio. The procedure: as §1, §2, §3, §4, §5, §6, §7

Assay [4] has as its target T4, Avi-KRAS G12C (1-169) GppNHp/RAF1 RBD-3×FLAG (52-151) (Homo sapiens, UniProt P01116, G12C).
T4 construct: Avi-KRAS G12C (1-169) GppNHp
The assay is described as follows: KRAS G12C-effector (RAF1 RBD) protein:protein interaction HTRF disruption assay. The class given is biochemical. The note with it: PPI HTRF. The procedure:
A protein:protein interaction (PPI) Homogeneous Time Resolved Fluorescence (HTRF) assay was used to determine the effectiveness of compounds of the present disclosure in disrupting KRAS G12C protein and effector (RAF1) binding.
The HTRF assay used the following reagents and proteins: 50 nM Avi-KRAS G12C (1-169) GppNHp/RAF1 RBD-3×FLAG (52-151); 75 nM Avi-RAF1 RBD-3×FLAG; Assay Buffer: 50 mM Tris pH 7.5, 100 mM NaCl, 5 mM MgCl2, 0.1% BSA, 0.01% Tween 20, 10% DMSO; Bead Buffer: 50 mM Tris pH 7.5, 0.01% Tween 20; Assay volume: 20 μL (384 well plate-low volume format); and Compound titration: 30-0.02 μM, 3× dilution series.
The HTRF assay employed the following protocol:
Compounds were dispensed in assay plate (384-well, Grenier Bione #784075) using Echo (model 555) with dose response settings: 200 nL final volume, titration from 100 μM as a 10-point dilution series. KRAS proteins were prepared in assay buffer, and dispensed on plates, 5 μL per well, then incubated for 1 h at room temperature, with 700 rpm shaking. RAF1 RBD were prepared in assay buffer, dispensed onto plates, 5 μL per well, and then incubated for 1 h at room temperature, with 700 rpm shaking. Reagent mix was then prepared and dispensed on plates, 10 μL per well, and then incubated for 1 h at room temperature, with 700 rpm shaking.
Plates were analyzed on an Envision plate reader using the following setting: Excitation 320 nm, Bandwidth 75 nm, Emission 615 nm, Bandwidth 85 nm; Gain 100%; Flashes 100; Lag 60 μs. Data was reported as percentage of activity, with DMSO as 100%. Data was plotted and analyzed using Prism 8.
In general terms: In TR-FRET formats the signal depends on donor and acceptor labels being close together.

The subject of assay [5] is pERK in NCI-H358 cells. In words: Cell-based pERK HTRF assay. Particulars: Homo sapiens, 0.5 h, 30 min incubation. As to the method:
pERK HTRF assays (Perkin Elmer) were used to determine the effectiveness of compounds of the present disclosure in disrupting KRAS G12C protein/effector signaling in cells.
On Day 1, cells (NCI-H358) were seeded into 96-well plates at 4×10^4 cells/well in complete growth media (RPMI, 10% FBS).
On Day 2, cells were treated with compounds at 0.25% DMSO. The source plate was created with compounds diluted in media at 5-fold the final assay concentration. The compounds were run in a 9-point concentration curve starting at 75 μM, with a 3-fold dilution between concentrations. 20 μL was transferred onto the cell plates (final volume in wells was 100 μL). Plates were harvested after 30 min incubation by aspirating media and adding kit-supplied 1× supplemented lysis buffer to all wells (75 μL per well). Plates were then placed on a plate shaker and incubated at 850 rpm for an additional 30 min.
Antibody mixture solution was prepared by diluting aliquoted d2 and Eu Cryptate antibodies 1:20 in kit supplied detection buffer, then mixed the diluted antibodies solutions (1:1 v:v). 4 μL of this solution was then added to a 384-well detection plate (Perkin Elmer; 6008230).
Samples were homogenized by pipetting up and down and then transferred (16 μL of cell lysates) from the 96-well cell culture plate to two wells of the HTRF 384-well detection plate containing the antibody solution. Plates were centrifuged (524 g for 1 min) and allowed to incubate between 4 and 24 h at room temperature. Maximum signal is reached after 4 h incubation time and remains stable over a period of 24 hours. Therefore, readings can be made between 4 and 24 h of incubation. Plates were centrifuged again (524 g for 1 min) and analyzed on the EnVision plate reader using the following settings: Excitation 320 nm, Bandwidth 75 nm; Emission 615 nm, Bandwidth 85 nm; Gain 100%; Flashes 100; Lag 60 μs.

Bounds are passed on as bounds.

`C=CC(=O)N1CC[C@@H](N(C)c2nc(OC[C@@]34CCCN3C[C@H](F)C4)nc3cc(-c4ccc(F)c5sc(N)c(C#N)c45)c(C(F)(F)F)nc23)C1` [Compound 8]: in assay [1], the “GppNHp-KRAS G12C percent of modification” value is recorded as “C (10%≤percent of modification <50%)”. The “GTP-KRAS G12C percent of modification” value in assay [2] is “C (10%≤percent of modification <50%)”. The “GDP-KRAS G12C percent of modification” value in assay [3] is “C (10%≤percent of modification <50%)”. In addition, the IC50 in assay [4] was not above 500 nM; in assay [5], not above 100 nM.
`C=CC(=O)N1CC[C@@H](N(C)c2nc(OC[C@@]34CCCN3C[C@H](F)C4)nc3nc(-c4ccc(F)c5sc(N)c(C#N)c45)ccc23)C1` [Compound 9, 4-(4-(((R)-1-acryloylpyrrolidin-3-yl)(methyl)amino)-2-(((2R,7aS)-2-fluorotetrahydro-1H-pyrrolizin-7a(5H)-yl)methoxy)pyrido[2,3-d]pyrimidin-7-yl)-2-amino-7-fluorobenzo[b]thiophene-3-carbonitrile]: in assay [1], the “GppNHp-KRAS G12C percent of modification” value is “C (10%≤percent of modification <50%)”. Further, the “GTP-KRAS G12C percent of modification” value in assay [2] is “C (10%≤percent of modification <50%)”. In assay [3], the “GDP-KRAS G12C percent of modification” value is given as “A (percent of modification ≥70%)”. The IC50 in assay [4] was not above 500 nM; in assay [5], more than 1000 nM.
With `C=CC(=O)N1C[C@H](C)N(c2nc(OC[C@@]34CCCN3C[C@H](F)C4)nc3cc(-c4ccc(F)c5sc(N)c(C#N)c45)c(C(F)(F)F)nc23)C[C@H]1C` [Compound 10, 4-(4-((2S,5R)-4-acryloyl-2,5-dimethylpiperazin-1-yl)-2-(((2R,7aS)-2-fluorotetrahydro-1H-pyrrolizin-7a(5H)-yl)methoxy)-6-(trifluoromethyl)pyrido[3,2-d]pyrimidin-7-yl)-2-amino-7-fluorobenzo[b]thiophene-3-carbonitrile], in assay [1], the “GppNHp-KRAS G12C percent of modification” value was “A (percent of modification ≥70%)”. In assay [2], the “GTP-KRAS G12C percent of modification” value is “C (10%≤percent of modification <50%)”. Also, in assay [3], the “GDP-KRAS G12C percent of modification” value is reported as “A (percent of modification ≥70%)”. Further, the IC50 was not above 500 nM in assay [4] and not above 100 nM in assay [5].
Consider `C=CC(=O)N1C[C@@H](F)[C@@H](N(C)c2nc(OC[C@@]34CCCN3C[C@H](F)C4)nc3c(F)c(-c4ccc(F)c5sc(N)c(C#N)c45)ncc23)C1` [Compound 11], for which the “GppNHp-KRAS G12C percent of modification” value in assay [1] is on record as “A (percent of modification ≥70%)”. Besides, the “GTP-KRAS G12C percent of modification” value in assay [2] is “A (percent of modification ≥70%)”. In assay [3], the “GDP-KRAS G12C percent of modification” value is listed as “A (percent of modification ≥70%)”. In addition, the IC50 in assay [4] is not above 500 nM; in assay [5], not above 100 nM.
`C=CC(=O)N1C[C@H](F)[C@@H](N(C)c2nc(OC[C@@]34CCCN3C[C@H](F)C4)nc3c(F)c(-c4ccc(F)c5sc(N)c(C#N)c45)ncc23)C1` [Compound 12]: in assay [1], the “GppNHp-KRAS G12C percent of modification” value is “A (percent of modification ≥70%)”. In assay [2], the “GTP-KRAS G12C percent of modification” value is listed as “A (percent of modification ≥70%)”. In assay [3], the “GDP-KRAS G12C percent of modification” value was “A (percent of modification ≥70%)”. Also, the values for the IC50 in assay [4] and in assay [5] were not above 500 nM and not above 100 nM, respectively.
As for `C=CC(=O)N1C[C@H](N(C)c2nc(OC[C@@]34CCCN3C[C@H](F)C4)nc3cc(-c4ccc(F)c5sc(N)c(C#N)c45)c(C(F)(F)F)nc23)C[C@H]1C` [Compound 13], the “GppNHp-KRAS G12C percent of modification” value in assay [1] is listed as “C (10%≤percent of modification <50%)”. The “GTP-KRAS G12C percent of modification” value in assay [2] is given as “C (10%≤percent of modification <50%)”. Besides, the “GDP-KRAS G12C percent of modification” value in assay [3] is on record as “C (10%≤percent of modification <50%)”. Moreover, the IC50 in assay [4] is not above 500 nM; in assay [5] it was not above 100 nM.
As to `C=CC(=O)N1CC[C@@H](N(C)c2nc(N3CC(N4CC5(CC5)C4)C3)nc3c(F)c(-c4ccc(F)c5sc(N)c(C#N)c45)ncc23)C1` [Compound 14, 2-amino-4-[2-[3-(5-azaspiro[2.3]hexan-5-yl)azetidin-1-yl]-8-fluoro-4-[methyl-[(3R)-1-prop-2-enoylpyrrolidin-3-yl]amino]pyrido[4,3-d]pyrimidin-7-yl]-7-fluoro-benzothiophene-3-carbonitrile], in assay [1], the “GppNHp-KRAS G12C percent of modification” value was “C (10%≤percent of modification <50%)”. Besides, the “GTP-KRAS G12C percent of modification” value in assay [2] is “C (10%≤percent of modification <50%)”. The “GDP-KRAS G12C percent of modification” value in assay [3] is reported as “A (percent of modification ≥70%)”. The IC50 in assay [4] was not above 500 nM; in assay [5], 100 to 1000 nM.

In general, IC50 refers to the concentration that gives 50% inhibition. Low values mean greater potency, high ones weaker potency.
